Molecular target: T1, IRAK1 (Homo sapiens, UniProt P51617)
T1 construct: purchased Thermo Fisher Scientific (Life Technologies) SelectScreen
Assay: SelectScreen Adapta
Assay type: biochemical
Procedure, shortened: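 SelectScreen broad panel; activity (Z'LYTE, Adapta) plus binding formats. ATP: Km app for CSF1R Z'LYTE; 10 for CAMK1 Adapta. Readout = % per kinase.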

T1 sequence (P51617 whole entry): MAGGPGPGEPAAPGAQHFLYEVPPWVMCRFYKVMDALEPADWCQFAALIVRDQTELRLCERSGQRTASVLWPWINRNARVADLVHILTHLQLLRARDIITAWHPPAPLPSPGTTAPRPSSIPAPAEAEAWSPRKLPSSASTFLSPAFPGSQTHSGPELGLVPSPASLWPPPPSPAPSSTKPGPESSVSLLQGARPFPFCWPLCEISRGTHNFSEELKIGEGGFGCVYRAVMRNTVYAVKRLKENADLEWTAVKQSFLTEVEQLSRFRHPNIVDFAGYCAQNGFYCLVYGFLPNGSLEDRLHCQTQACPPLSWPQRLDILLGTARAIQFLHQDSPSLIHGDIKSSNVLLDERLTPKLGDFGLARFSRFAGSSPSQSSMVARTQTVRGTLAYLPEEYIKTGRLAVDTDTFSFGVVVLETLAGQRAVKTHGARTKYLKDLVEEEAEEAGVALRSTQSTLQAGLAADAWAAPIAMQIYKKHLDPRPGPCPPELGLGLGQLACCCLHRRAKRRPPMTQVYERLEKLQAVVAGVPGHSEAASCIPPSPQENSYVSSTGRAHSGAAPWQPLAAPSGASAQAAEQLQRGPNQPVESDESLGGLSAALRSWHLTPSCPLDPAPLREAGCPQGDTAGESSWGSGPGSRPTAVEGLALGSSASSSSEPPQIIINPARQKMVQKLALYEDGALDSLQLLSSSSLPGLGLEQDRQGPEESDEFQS

Question: Which inhibition at 1 µM does the source give for CN(C(=O)CN1CCOCC1)c1ccc2sc3c(-c4cccc5c(=O)cc(N6CC7CCC(C6)O7)oc45)cccc3c2c1 [NU5455] here?
Answer: 4%
